Data taken from DBAASP.
Converted amounts (≈) assume the structure as drawn. “And” between values parts separate entries of the source, which are not always exact repeats. Equal entries are not always repeated.

Experiments:
Experiment in all cases: ≥ marks a high value that may be exact or a test limit, other limits are often not marked, values filed in µg/mL are converted to µM
[1] = system: Aspergillus awamori KCTC 6915
[2] = system: Candida albicans KCTC 7270
[3] = system: Staphylococcus epidermidis ATCC 12228
[4] = system: Escherichia coli ATCC 25922
[5] = system: Aspergillus fumigatus KCTC 6145
[6] = system: Staphylococcus epidermidis KCTC 3096
[7] = system: Bacillus subtilis KCTC 1998
[8] = system: Staphylococcus aureus ATCC 25923
[9] = system: Pseudomonas aeruginosa KCTC 1637
[10] = system: Trichosporon beigelii KCTC 7707
[11] = system: Listeria monocytogenes ATCC 19115
[12] = system: Aspergillus parasiticus KCTC 6598
[13] = system: Aspergillus flavus KCTC 6905
[14] = system: Pseudomonas aeruginosa ATCC 15692
[15] = system: Proteus vulgaris KCTC 2433
[16] = system: Salmonella typhimurium KCTC 1926
[17] = system: Listeria monocytogenes KCTC 3710
[18] = system: Bacillus subtilis KCTC 1918
[19] = system: Staphylococcus aureus USA 300
[20] = system: Staphylococcus epidermidis ATCC 35984
[21] = system: Pseudomonas aeruginosa 4677
[22] = system: Enterobacter cloacae 2524
Escherichia coli 170 = system: Escherichia coli 170
Acinetobacter baumannii = system: Acinetobacter baumannii
[23] = system: Klebsiella pneumoniae 913
[24] = system: Pseudomonas aeruginosa ATCC 27853
Escherichia coli KF130 = system: Escherichia coli KF130
[25] = system: Staphylococcus epidermidis
Escherichia coli UB1005 = system: Escherichia coli UB1005
[26] = system: Pseudomonas aeruginosa H744
[27] = system: Salmonella enterica subsp. enterica serovar Typhimurium ATCC 14028s
Escherichia coli KF111 = system: Escherichia coli KF111
[28] = system: Pseudomonas aeruginosa H374
[29] = system: Pseudomonas aeruginosa K799
[30] = system: Staphylococcus aureus ATCC 33591
[31] = system: Salmonella enterica subsp. enterica serovar Typhimurium ATCC 14028
[32] = system: Bacillus subtilis ATCC 6633
[33] = system: Candida albicans ATCC 64550
[34] = system: Staphylococcus aureus TK784
[35] = system: Shigella dysenteriae ATCC 9752
[36] = system: Klebsiella pneumoniae ATCC 10031
[37] = system: Staphylococcus aureus ATCC 6538P
[38] = system: Micrococcus luteus ATCC 10240

CC[C@H](C)[C@H](NC(=O)[C@H](CCCCN)NC(=O)[C@H](CCCCN)NC(=O)[C@H](C)NC(=O)[C@H](CC(C)C)NC(=O)[C@H](CCCCN)NC(=O)[C@H](CCCCN)NC(=O)[C@H](CC(C)C)NC(=O)[C@H](CCCN=C(N)N)NC(=O)[C@H](CCCCN)NC(=O)[C@H](C)N)C(=O)N[C@@H](Cc1c[nH]c2ccccc12)C(=O)N[C@@H](CC(N)=O)C(=O)N[C@@H](Cc1c[nH]c2ccccc12)C(=O)N[C@@H](CCCCN)C(N)=O [AKRLKKLAKKIWNWK]
MIC [1]: 16 µM (≈ 30.6 µg/mL) | MIC [2]: 16 µM (≈ 30.6 µg/mL) | MIC [3]: 16 µM (≈ 30.6 µg/mL) | MIC [4]: 22.6 µM (≈ 43.2 µg/mL) | MIC [5]: 4 µM (≈ 7.64 µg/mL) | MIC [6]: 16 µM (≈ 30.6 µg/mL) | MIC [7]: 4 µM (≈ 7.64 µg/mL) | MIC [8]: 5.66 µM and 16 µM | MIC [9]: 2 µM (≈ 3.82 µg/mL) | MIC [10]: ≥ 32 µM | MIC [11]: 2 µM (≈ 3.82 µg/mL) | MIC [12]: 8 µM (≈ 15.3 µg/mL) | MIC [13]: ≥ 32 µM | MIC [14]: 2 µM (≈ 3.82 µg/mL) | MIC [15]: 4 µM (≈ 7.64 µg/mL) | MIC [16]: 2 µM (≈ 3.82 µg/mL) | MIC [17]: 2 µM (≈ 3.82 µg/mL) | MIC [18]: 4 µM (≈ 7.64 µg/mL)

CC[C@H](C)[C@H](NC(=O)CN)C(=O)N[C@H](C(=O)N[C@@H](CCCCN)C(=O)N[C@H](C(=O)N[C@H](C(=O)N[C@@H](CCCCN)C(=O)N[C@@H](CO)C(=O)N[C@@H](CC(C)C)C(=O)N[C@H](C(=O)N[C@@H](CCC(=O)O)C(=O)N[C@@H](CCC(N)=O)C(=O)N[C@@H](Cc1ccccc1)C(=O)N[C@H](C(=O)NCC(=O)N[C@@H](CCCCN)C(=O)O)[C@@H](C)O)[C@@H](C)CC)[C@@H](C)CC)C(C)C)[C@@H](C)CC [GIIKVIKSLIEQFTGK]
MIC [19]: ≥ 64 µM | MIC [20]: ≥ 42 µM

CC[C@H](C)[C@H](N)C(=O)N[C@@H](C)C(=O)N[C@@H](CO)C(=O)N[C@@H](CCCCN)C(=O)N[C@H](C(=O)N[C@@H](C)C(=O)N[C@@H](CC(N)=O)C(=O)N[C@H](C(=O)N[C@H](C(=O)N[C@@H](CCC(N)=O)C(=O)N[C@@H](CCCCN)C(=O)N[C@@H](CC(C)C)C(=O)N[C@@H](CCCCN)C(=O)N[C@@H](CCCN=C(N)N)C(=O)N[C@@H](CCCCN)C(=O)N[C@@H](C)C(=O)N[C@@H](CCCCN)C(=O)N[C@@H](CC(N)=O)C(=O)N[C@@H](C)C(=O)N[C@H](C(=O)O)C(C)C)C(C)C)[C@@H](C)O)C(C)C [IASKVANTVQKLKRKAKNAV]
MIC [21]: ≥ 50 µM | MIC [4]: 25 µM (≈ 54.2 µg/mL) | MIC [22]: ≥ 50 µM | MIC (Escherichia coli 170): ≥ 50 µM | MIC (Acinetobacter baumannii): ≥ 50 µM | MIC [23]: ≥ 50 µM

CC[C@H](C)[C@H](NC(=O)[C@@H]1CCCN1C(=O)[C@H](CCCCN)NC(=O)[C@H](CC(C)C)NC(=O)[C@H](C)NC(=O)[C@@H](NC(=O)[C@H](Cc1cnc[nH]1)NC(=O)[C@H](CC(C)C)NC(=O)[C@@H](NC(=O)[C@@H](NC(=O)[C@H](CCCN=C(N)N)NC(=O)[C@H](C)NC(=O)[C@@H]1CCCN1C(=O)[C@H](CO)NC(=O)[C@H](CCCCN)NC(=O)[C@H](Cc1ccccc1)NC(=O)[C@@H](NC(=O)[C@H](CCCCN)NC(=O)[C@H](CC(C)C)NC(=O)[C@H](Cc1ccccc1)NC(=O)[C@H](CO)NC(=O)[C@H](CCCCN)NC(=O)[C@H](Cc1c[nH]c2ccccc12)NC(=O)[C@@H](N)CCCCN)[C@@H](C)O)[C@@H](C)O)C(C)C)[C@@H](C)O)C(=O)N[C@@H](CO)C(=O)N[C@@H](CO)C(=O)O [KWKSFLKTFKSPARTVLHTALKPISS]
MIC [24]: 4 µM (≈ 11.9 µg/mL) | MIC (Escherichia coli KF130): 2.69 µM (≈ 8 µg/mL) | MIC [25]: 21.5 µM (≈ 64 µg/mL) | MIC (Escherichia coli UB1005): 1.35 µM (≈ 4 µg/mL) | MIC [26]: 10.8 µM (≈ 32 µg/mL) | MIC [27]: 10.8 µM (≈ 32 µg/mL) | MIC (Escherichia coli KF111): 1.35 µM (≈ 4 µg/mL) | MIC [28]: 10.8 µM (≈ 32 µg/mL) | MIC [29]: 10.8 µM (≈ 32 µg/mL)

CC[C@H](C)[C@H](NC(=O)[C@@H]1CCCN1C(=O)[C@H](CCCCN)NC(=O)[C@H](CC(C)C)NC(=O)[C@H](C)NC(=O)[C@@H](NC(=O)[C@H](Cc1ccc(O)cc1)NC(=O)[C@H](Cc1ccccc1)NC(=O)[C@@H](NC(=O)[C@@H](NC(=O)[C@H](CCCCN)NC(=O)[C@@H](NC(=O)[C@@H]1CCCN1C(=O)[C@H](CO)NC(=O)[C@H](CCCCN)NC(=O)[C@H](CC(C)C)NC(=O)[C@@H](NC(=O)[C@H](CCCCN)NC(=O)[C@H](CC(C)C)NC(=O)[C@H](Cc1ccccc1)NC(=O)[C@H](CO)NC(=O)[C@H](CCCCN)NC(=O)[C@H](Cc1c[nH]c2ccccc12)NC(=O)[C@@H](N)CCCCN)[C@@H](C)O)C(C)C)[C@@H](C)O)C(C)C)[C@@H](C)O)C(=O)N[C@@H](CO)C(=O)N[C@@H](CO)C(=O)O [KWKSFLKTLKSPVKTVFYTALKPISS]
MIC (Escherichia coli KF130): 0.667 µM (≈ 2 µg/mL) | MIC [25]: 10.7 µM (≈ 32 µg/mL) | MIC (Escherichia coli UB1005): 0.667 µM (≈ 2 µg/mL) | MIC [26]: 5.34 µM (≈ 16 µg/mL) | MIC [27]: 5.34 µM (≈ 16 µg/mL) | MIC (Escherichia coli KF111): 0.667 µM (≈ 2 µg/mL) | MIC [28]: 5.34 µM (≈ 16 µg/mL) | MIC [29]: 5.34 µM (≈ 16 µg/mL)

CC[C@H](C)[C@H](NC(=O)[C@H](CCCCN)NC(=O)[C@@H](NC(=O)[C@H](Cc1ccccc1)NC(=O)[C@H](C)NC(=O)[C@H](CCCCN)NC(=O)CNC(=O)[C@H](Cc1ccccc1)NC(=O)[C@H](CCCCN)NC(=O)[C@H](CCCCN)NC(=O)[C@H](C)NC(=O)[C@H](CCCCN)NC(=O)[C@H](CCCCN)NC(=O)[C@@H](N)CC(C)C)C(C)C)C(=O)N[C@@H](CC(C)C)C(=O)N[C@@H](CCCCN)C(=O)N[C@@H](CCCCN)C(N)=O [LKKAKKFGKAFVKILKK]
MIC [24]: 1.43 µM (≈ 2.83 µg/mL) | MIC [8]: > 259 µM | MIC [20]: 8.1 µM (≈ 16 µg/mL) | MIC [30]: ≥ 259 µM

CC(C)C[C@H](NC(=O)[C@H](Cc1c[nH]c2ccccc12)NC(=O)[C@H](CCCCN)NC(=O)[C@H](CC(C)C)NC(=O)[C@H](CC(C)C)NC(=O)[C@H](Cc1c[nH]c2ccccc12)NC(=O)[C@H](CCCCN)NC(=O)[C@H](CC(C)C)NC(=O)[C@@H](N)CC(C)C)C(=O)N[C@@H](CCCCN)C(=O)N[C@@H](CCCCN)C(N)=O [LLKWLLKWLKK]
MIC [3]: 0.885 µM (≈ 1.3 µg/mL) | MIC [24]: 6.81 µM (≈ 9.99 µg/mL) | MIC [4]: 6.81 µM (≈ 9.99 µg/mL) | MIC [31]: 27.2 µM (≈ 40 µg/mL) | MIC [32]: 0.885 µM (≈ 1.3 µg/mL) | MIC [33]: ≥ 100 µM | MIC [34]: 3.4 µM (≈ 5 µg/mL) | MIC [35]: 6.81 µM (≈ 9.99 µg/mL) | MIC [36]: 13.6 µM (≈ 20 µg/mL) | MIC [37]: 0.885 µM (≈ 1.3 µg/mL) | MIC [38]: 0.885 µM (≈ 1.3 µg/mL)
